# Measurements published in patent publication US20250230193A1, “CYCLIC COMPOUND HAVING SELECTIVE KRAS INHIBITORY EFFECT ON HRAS AND NRAS” (CHUGAI SEIYAKU KABUSHIKI KAISHA, priority 2022, published 2025).
# *1 amine or outer side, *2 acyl side, *3 side chain or, on linkers, in order; H or OH if unused. Where a SMILES comes first, the peptide text is derived from it. Bridges are numbered along the chain shown (N, C = ends). [ ]: non-standard residue; d: D form. The star is where a group is joined. hPhe(3-Cl-4-CF3) = N[C@@H](CCc1ccc(C(F)(F)F)c(Cl)c1)C(=O)O; NPrPhe(4-CF3) = CCCN[C@@H](Cc1ccc(C(F)(F)F)cc1)C(=O)O; NEtPhe(4-CF3) = CCN[C@@H](Cc1ccc(C(F)(F)F)cc1)C(=O)O; X12 = COCCN([C@@H](Cc1ccc(C)cc1)C(=O)[*:2])[*:1]; NMeGly(cPent) = CN[C@H](C(=O)O)C1CCCC1; NMeD = CN[C@@H](CC(=O)O)C(=O)O; NMeL = CN[C@@H](CC(C)C)C(=O)O; Morpholide = C1CN(*)CCO1; NMeA = CN[C@@H](C)C(=O)O; Ac5c = NC1(C(=O)O)CCCC1; Aze = O=C(O)[C@@H]1CCN1; NcPrGly = O=C(O)CNC1CC1; Sar = CNCC(=O)O
# Legend:
# [1] = molecular target: GDP-bound NRAS wild-type protein (Homo sapiens, UniProt P01111); assay: Binding to NRAS by surface plasmon resonance (SPR), Single Cycle Kinetics; conditions: SPR
# Chain of GDP-bound NRAS wild-type protein (P01111 whole entry): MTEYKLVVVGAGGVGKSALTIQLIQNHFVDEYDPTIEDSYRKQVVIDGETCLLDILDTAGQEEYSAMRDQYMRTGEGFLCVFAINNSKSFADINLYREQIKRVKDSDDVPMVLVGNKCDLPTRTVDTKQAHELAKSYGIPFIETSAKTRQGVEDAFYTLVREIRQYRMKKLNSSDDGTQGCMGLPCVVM
# [2] = molecular target: GDP-bound HRAS wild-type protein (Homo sapiens, UniProt P01112); assay: Binding to HRAS by surface plasmon resonance (SPR), Single Cycle Kinetics; conditions: SPR
# Chain of GDP-bound HRAS wild-type protein (P01112 whole entry): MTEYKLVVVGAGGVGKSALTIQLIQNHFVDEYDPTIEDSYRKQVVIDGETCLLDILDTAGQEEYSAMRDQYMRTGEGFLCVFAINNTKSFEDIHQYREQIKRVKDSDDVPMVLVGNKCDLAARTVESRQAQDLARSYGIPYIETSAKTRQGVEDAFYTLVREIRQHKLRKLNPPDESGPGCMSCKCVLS
compound,measurement,setting,value
CCOC[C@H]1C(=O)N[C@@H]([C@@H](C)CC)C(=O)N2CCC[C@H]2C(=O)N(C)[C@H]2C/C=C\CCN(C2=O)[C@@H](Cc2ccc(C(F)(F)F)cc2)C(=O)N(C)CC(=O)N[C@@H](CCc2ccc(C(F)(F)F)c(OC)c2)C(=O)N2C[C@H](OCC)C[C@H]2C(=O)N(C)C2(CCC2)C(=O)N(C)[C@@H](C(CC)CC)C(=O)N(C)[C@H](C(=O)N(C)C)CC(=O)N1C [PP2319],NRAS/KRAS (ratio of KD value with respect to NRAS to KD value with respect to KRAS),[1]; GDP-bound NRAS wild-type vs GDP-bound KRAS wild-type,AA (a compound having 20 or more is denoted as AA)
same,HRAS/KRAS (ratio of KD value with respect to HRAS to KD value with respect to KRAS),[2]; GDP-bound HRAS wild-type vs GDP-bound KRAS wild-type,A (a compound having 10 or more and less than 20 is denoted as A)
CC[C@H](C)[C@@H]1NC(=O)[C@H](CC(C)C)N(C)C(=O)C[C@@H](C(=O)N2CCOCC2)N(C)C(=O)[C@H](C2CCCC2)N(C)C(=O)C2(CCCC2)NC(=O)[C@@H]2CCCN2C(=O)[C@H](CCc2ccc(C(F)(F)F)c(Cl)c2)NC(=O)CN(C)C(=O)[C@H](Cc2ccc(C(F)(F)F)cc2)N(CC)C(=O)[C@@H]2CCN2C(=O)[C@H](C)N(C)C1=O [PP0002] ([NMeL]I[NMeA][Aze][NEtPhe(4-CF3)][Sar][hPhe(3-Cl-4-CF3)]P[Ac5c][NMeGly(cPent)][NMeD]-Morpholide; lactam N-11),NRAS/KRAS (ratio of KD for GDP-bound NRAS wild-type to KD for KRAS),[1],C (A compound having a KD ratio of 0.1 or more and less than 3 is denoted as C)
same,HRAS/KRAS (ratio of KD for GDP-bound HRAS wild-type to KD for KRAS),[2],C (A compound having a KD ratio of 0.1 or more and less than 3 is denoted as C)
CC[C@H](C)[C@@H]1NC(=O)[C@H](CC(C)C)N(C)C(=O)C[C@@H](C(=O)N2CCOCC2)N(C)C(=O)[C@H](C2CCCC2)N(C)C(=O)C2(CC2)NC(=O)[C@@H]2CCCN2C(=O)[C@H](CCc2cc(F)c(C(F)(F)F)c(F)c2)NC(=O)CN(C)C(=O)[C@H](Cc2ccc(C(F)(F)F)cc2)N2CCCC[C@@H](C2=O)N(C)C(=O)CN(C)C1=O [PP0559],NRAS/KRAS (ratio of KD value with respect to GDP-bound NRAS wild-type protein to KD value with respect to KRAS),[1],B (a compound having 3 or more and less than 10 is denoted as B)
same,HRAS/KRAS (ratio of KD value with respect to GDP-bound HRAS wild-type protein to KD value with respect to KRAS),[2],B (a compound having 3 or more and less than 10 is denoted as B)
CCCO[C@@H]1C[C@H]2C(=O)NC3(CC(C)(C)C3)C(=O)N(C)[C@@H](C3CCCC3)C(=O)N(C)[C@H](C(=O)N(C)CC)CC(=O)N(C)[C@H]3CCCc4ccc(cc4)C[C@@H](C(=O)N(C)CC(=O)N[C@@H](CCc4ccc(C(F)(F)F)c(OC)c4)C(=O)N2C1)N1CC/C=C\C[C@@H](C1=O)N(C)C(=O)CN(C)C(=O)[C@H]([C@@H](C)CC)NC3=O [PP3083],NRAS/KRAS (ratio of KD value with respect to GDP-bound NRAS wild-type protein to KD value with respect to KRAS),[1]; GDP-bound wild-type proteins,A (a compound having 10 or more and less than 20 is denoted as A)
same,HRAS/KRAS (ratio of KD value with respect to GDP-bound HRAS wild-type protein to KD value with respect to KRAS),[2]; GDP-bound wild-type proteins,A (a compound having 10 or more and less than 20 is denoted as A)
CCCC[C@H]1C(=O)N[C@@H]([C@@H](C)CC)C(=O)N(C)CC(=O)N(C)[C@H]2C/C=C\CCN(C2=O)[C@@H](Cc2ccc(C(F)(F)F)cc2)C(=O)N(C)CC(=O)N[C@@H](CCc2cc(F)c(C(F)(F)F)c(F)c2)C(=O)N2C[C@H](F)C[C@H]2C(=O)NC2(CC(C)(C)C2)C(=O)N(C)[C@@H](C2CCCC2)C(=O)N(C)[C@H](C(=O)N(C)C)CC(=O)N1C [PP1693],NRAS/KRAS (ratio of KD value for NRAS to KD value for KRAS),"[1]; KD ratio, GDP-bound NRAS wild-type vs GDP-bound KRAS wild-type",AA (a compound having 20 or more is denoted as AA)
same,HRAS/KRAS (ratio of KD value for HRAS to KD value for KRAS),"[2]; KD ratio, GDP-bound HRAS wild-type vs GDP-bound KRAS wild-type",A (a compound having 10 or more and less than 20 is denoted as A)
CC[C@H](C)[C@@H]1NC(=O)[C@H](CC(C)C)N(C)C(=O)C[C@@H](C(=O)N2CCOCC2)N(C)C(=O)[C@H](C2CCCC2)N(C)C(=O)C2(CCCC2)NC(=O)[C@@H]2CCCN2C(=O)[C@H](CCc2ccc(C(F)(F)F)c(Cl)c2)NC(=O)CN(C)C(=O)[C@H](Cc2ccc(C)cc2)N(CCOC)C(=O)CN(C)C(=O)CN(C)C1=O [PP0104] ([NMeL]I[Sar][Sar][X12][Sar][hPhe(3-Cl-4-CF3)]P[Ac5c][NMeGly(cPent)][NMeD]-Morpholide; lactam N-11),NRAS/KRAS (ratio of KD for GDP-bound NRAS wild-type to KD for KRAS),[1],B (a compound having 3 or more and less than 10 is denoted as B)
same,HRAS/KRAS (ratio of KD for GDP-bound HRAS wild-type to KD for KRAS),[2],C (A compound having a KD ratio of 0.1 or more and less than 3 is denoted as C)
CCCN1C(=O)CN(C)C(=O)CN(C2CC2)C(=O)[C@H]([C@@H](C)CC)NC(=O)[C@H](CC(C)C)N(C)C(=O)C[C@@H](C(=O)N2CCOCC2)N(C)C(=O)[C@H](C2CCCC2)N(C)C(=O)C2(CCCC2)NC(=O)[C@@H]2CCCN2C(=O)[C@H](CCc2ccc(C(F)(F)F)c(Cl)c2)NC(=O)CN(C)C(=O)[C@@H]1Cc1ccc(C(F)(F)F)cc1 [PP0252] ([NMeL]I[NcPrGly][Sar][NPrPhe(4-CF3)][Sar][hPhe(3-Cl-4-CF3)]P[Ac5c][NMeGly(cPent)][NMeD]-Morpholide; lactam N-11),NRAS/KRAS (ratio of KD for GDP-bound NRAS wild-type to KD for KRAS),[1],B (a compound having 3 or more and less than 10 is denoted as B)
same,HRAS/KRAS (ratio of KD for GDP-bound HRAS wild-type to KD for KRAS),[2],B (a compound having 3 or more and less than 10 is denoted as B)
